Data reported in US7202239B2, “Cyclohexylphenyl carboxamides tocolytic oxytocin receptor antagonists” (Wyeth, priority 2001, dated 2007).
pIC50: −log10 of the molar value.

Molecular target: T1, human oxytocin receptor (Homo sapiens, UniProt P30559)
T1 sequence (P30559 1-389): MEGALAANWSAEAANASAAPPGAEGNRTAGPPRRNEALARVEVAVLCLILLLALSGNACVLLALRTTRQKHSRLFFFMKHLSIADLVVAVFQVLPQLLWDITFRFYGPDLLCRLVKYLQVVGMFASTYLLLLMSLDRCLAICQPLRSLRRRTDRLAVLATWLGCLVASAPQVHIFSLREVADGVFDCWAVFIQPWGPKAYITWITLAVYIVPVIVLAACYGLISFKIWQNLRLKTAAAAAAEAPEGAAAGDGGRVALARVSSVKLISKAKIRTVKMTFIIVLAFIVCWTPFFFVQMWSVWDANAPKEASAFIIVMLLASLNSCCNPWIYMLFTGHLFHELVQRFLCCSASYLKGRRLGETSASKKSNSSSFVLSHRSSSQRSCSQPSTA
Assay: Oxytocin binding in CHO cell membranes expressing human oxytocin receptors
Details: 100 nM, [3H]oxytocin
From the text: Oxytocin Binding in Chinese Hamster Ovary Cell Membranes Expressing Human Oxytocin Receptors
Chinese Hamster Ovary (CHO) cells stably transfected with the human oxytocin receptor (cf. Tanizawa et al., U.S. Pat. No. 5,466,584 (1995) to Rohto Pharmaceutical Co. Ltd., Osaka, Japan) were obtained from M. Thibonnier, Case Western Reserve University School of Medicine, Cleveland, Ohio. A. Passaging and Amplification of Cells: CHO cells transfected with the human oxytocin receptors obtained from M. Thibonnier (pcDNA3.1 vector) are allowed to grow to confluency (approx. >90%) in T-150 flasks under sterile conditions, in a cell culture medium of F-12 Nutrient Mixture (HAM) with L-glutamine (Gibco Cat. # 11765-054) containing 15 mM HEPES (Gibco Cat. # 15630-080), 1% antibiotic/antimycotic (add 5 mL 100×, Gibco Cat. # 15240-062 per 500 mL F-12), 400 μg/mL of Geneticin (add 4 mL of 50 mg/mL per 500 mL F-12) and 10% Fetal Bovine Serum (Qualified, heat inactivated, Gibco Cat. # 16140-063). The medium is removed by aspiration and the cells are washed with 10 mL of Hank's Balanced Salt solution (Gibco Cat. # 14175-095). The salt solution is removed by aspiration and the cells trypsinized with 5 mL of trypsin-EDTA (0.05% trypsin, 0.53 mM EDTA-4Na, Gibco Cat. # 25300-070) for 1 min The trypsin is removed by aspiration and the cells dislodged by tapping. Cell Culture medium (e.g. 30 mL for 1:30 split) is immediately added and mixed well to inactivate trypsin. 1 mL of detached cells is added to new culture flasks containing fresh Cell Culture medium (e.g. into 25 mL per T-150 flask), and mixed gently. The cells are incubated at 37° C. in 5% CO2. The medium is changed at 3 to 4 days interval (or as appropriate). The cells grow to confluency (approx. >75%–95%) within 7–8 days. All steps are done under sterile conditions. B. Membrane Preparation: The cells are washed twice gently with Hank's Balanced Salt solution (eg, use 10 mL per T-150 flask). The excess solution is removed and the cells bathed for 15–30 min. in an enzyme-free Cell Dissociation Buffer (eg, use 8 mL Hank's Based, Gibco Cat. # 13150-016 per T-150 flask) until cells are loosened. The contents are transferred to centrifuge tubes (50 mL size) kept in ice bath. All subsequent steps are done at 4° C. The tubes are centrifuged at 300×g for 15 min (1380 rpm on SORVAL, Model RT6000D, using rotor for 50 mL tubes). The supernatant is discarded and the cells suspended in homogenizing buffer (10 mM Tris-HCl containing 0.25 M sucrose and 1 mM EDTA, pH 7.4) ensuring that the volume of the buffer is about ten times the volume of the cell pellet. The cells are pooled into a centrifuge tube (50 mL) and homogenized with a Polytron at setting 6 for 10 sec. The homogenate is transferred into a Potter-Elvjehm homogenizer and homogenized with 3 strokes. The homogenate is centrifuged at 1500×g for 10 min at 4° C. (3100 rpm using SORVAL, model RT6000D, using rotor for 50 mL tubes). The pellet is discarded. The supernatant is centrifuged at 100,000×g for 60 min. at 4° C. (Beckman L8-80M ultracentrifuge; spin at 37,500 rpm with rotor type 70 Ti for 50 mL tubes; 38,000 rpm with type 80Ti for 15 mL tubes; or 35,800 rpm with rotor type 45Ti). The supernantant is discarded and the pellet suspended in 3 to 4 mL of Tris buffer (50 mM TRIS-HCl, pH 7.4). The protein content is estimated by the Bradford or Lowry method. The volume of the membrane suspension is adjusted with the membrane buffer (50 mM Tris-HCl containing 0.1% BSA and 0.1 mM PMSF) to give 3.0 mg/mL (or as appropriate) of protein. The membranes are aliquoted and stored at −70° C. C. Radioligand Binding Assay: In wells of a 96-well format microtiter plate, is added 90, 110 or 130 μL (to make up a final volume of 200 μL) of assay buffer containing 50 mM of Tris-HCl (pH 7.4), […], 1 mg % aprotinin, 1 mg % leupeptin, 2 mg % 1,10-phenanthroline, 10 mg % trypsin inhibitor, and 0.1 mM PMSF. […]

OT % inhibition at 100 nM [%]	SMILES
47	Cc1ccccc1C(=O)NNC(=O)c1ccc2n1Cc1ccccc1N(C(=O)c1ccc(C3CCCCC3)cc1)C2 [Example 12, 10-(4-Cyclohexyl-benzoyl)-N′-(2-methylbenzoyl)-10,11-dihydro-5H-pyrrolo[2,1-c][1,4]benzodiazepine-3-carbonyl-hydrazide]
73	O=C(NNC(=O)C1CC1)c1ccc2n1Cc1ccccc1N(C(=O)c1ccc(C3CCCCC3)cc1)C2 [Example 13, 10-(4-Cyclohexyl-benzoyl)-N′-(cyclopropylcarbonyl)-10,11-dihydro-5H-pyrrolo[2,1-c][1,4]benzodiazepine-3-carbonyl-hydrazide]
53	Cc1cccc(C(=O)NNC(=O)c2ccc3n2Cc2ccccc2N(C(=O)c2ccc(C4CCCCC4)cc2)C3)c1 [Example 14, 10-(4-Cyclohexyl-benzoyl)-N′-(3-methyl-benzoyl)-10,11-dihydro-5H-pyrrolo[2,1-c][1,4]benzodiazepine-3-carbonyl-hydrazide]

Same assay, conditions: 100 nM, [3H]oxytocin, read-out: OT % inhibition at 100 nM

inhibition at 0.1 µM [%]	SMILES
46	CC(C)(C)c1ccc(C(=O)c2ccc3n2Cc2ccccc2N(C(=O)c2ccc(C4CCCCC4)cc2)C3)cc1 [Example 5, [4-(tert-Butyl)phenyl][10-(4-cyclohexyl-benzoyl)-10,11-dihydro-5H-pyrrolo[2,1-c][1,4]benzodiazepin-3-yl]methanone]
12	O=C(c1ccc(C2CCCCC2)cc1)N1Cc2ccc(C(=O)C(Cl)(Cl)Cl)n2Cc2ccccc21 [Example 7, 2,2,2-Trichloro-1-[10-(4-cyclohexyl-benzoyl)-10,11-dihydro-5H-pyrrolo[2,1-c][1,4]benzodiazepin-3-yl]-1-ethanone]

The next lines start with the molecule.

SMILES	inhibition at 0.1 µM [%]
COC(=O)c1ccc2c(c1)N(C(=O)c1ccc(C3CCCCC3)cc1)Cc1ccc(C(=O)N3CCN(C)CC3)n1C2.Cl [Example 1, Methyl 10-(4-cyclohexylbenzoyl)-3-[(4-methyl-1-piperazinyl)carbonyl]-10,11-dihydro-5H-pyrrolo[2,1-c][1,4]benzodiazepine-8-carboxylate hydrochloride salt]	14
CN1CCN(C(=O)c2ccc3n2Cc2ccc(C(=O)O)cc2N(C(=O)c2ccc(C4CCCCC4)cc2)C3)CC1 [Example 3, 10-(4-Cyclohexyl-benzoyl)-3-[(4-methyl-1-piperazinyl)carbonyl]-10,11-dihydro-5H-pyrrolo[2,1-c][1,4]benzodiazepine-8-carboxylic acid]	-2

Same assay, conditions: [3H]oxytocin, value in parentheses, read-out: OT (IC50)

pIC50	SMILES
6.98	CC(=O)c1ccc2n1Cc1ccccc1N(C(=O)c1ccc(C3CCCCC3)cc1)C2 [Example 6, 1-[10-(4-Cyclohexyl-benzoyl)-10,11-dihydro-5H-pyrrolo[2,1-c][1,4]benzodiazepin-3-yl]-ethanone]
7.12	CN(C)C=NNC(=O)c1ccc2n1Cc1ccccc1N(C(=O)c1ccc(C3CCCCC3)cc1)C2 [Example 10, N′-{[10-(4-Cyclohexyl-benzoyl)-10,11-dihydro-5H-pyrrolo[2,1-c][1.4]benzodiazepin-3-yl]carbonyl}-N,N-dimethylhydrazonoformamide]
7.28	CC(=O)NNC(=O)c1ccc2n1Cc1ccccc1N(C(=O)c1ccc(C3CCCCC3)cc1)C2 [Example 11, N′-Acetyl-10-(4-cyclohexyl-benzoyl)-10,11-dihydro-5H-pyrrolo[2,1-c][1,4]benzodiazepine-3-carbonyl-hydrazide]

The remaining lines, values behind:

SMILES	pIC50
NNC(=O)c1ccc2n1Cc1ccccc1N(C(=O)c1ccc(C3CCCCC3)cc1)C2 [Example 8, 10-(4-Cyclohexy-benzoyl)-10,11-dihydro-5H-pyrrolo[2,1-c][1,4]benzodiazepine-3-carboxylic acid hydrazide]	6.90
CC(=NNC(=O)c1ccc2n1Cc1ccccc1N(C(=O)c1ccc(C3CCCCC3)cc1)C2)N(C)C [Example 9, N′-{[10-(4-Cyclohexyl-benzoyl)-10,11-dihydro-5H-pyrrolo[2,1-c][1,4]benzodiazepin-3-yl]carbonyl}-N,N-dimethylethanehydrazonamide]	7.45
